From the supplement of paper PMC11451515

Experiments:
Details in all cases: 48 h
NOMO1 [1] = assay: cell viability relative to DMSO control; higher = less cytotoxic
Summary of the method: (§1)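 Cells were incubated for 48 h at 37°C before CellTiter-Glo One luminescence was read. The cells were NOMO1 or SEM (500 cells/well) or P12-Ichikawa (1000 cells/well) leukemia cells, adapted for at least four passages in each medium and seeded in 1536-well plates (5 μl). Dosing used library compounds in DMSO applied by pin over 11 threefold points, 47 μM to 0.79 nM. Viability is the per-plate percentage of DMSO wells, with cell-free wells as background.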

P12-Ichikawa [2] = assay: as above
Summary of the method: as §1

SEM cells = assay: as above
Summary of the method: as §1

NOMO1 [3] = assay: AUC of viability dose-response curve (% viability x log10 dose units); higher = less sensitive
Summary of the method: (§2)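 Library compounds in DMSO were applied for 48 h at 37°C at 11 threefold doses (47 μM to 0.79 nM) to medium-adapted leukemia cells in 1536-well plates holding 500 or 1000 cells/well. Luminescence from CellTiter-Glo One was normalised plate by plate against DMSO and cell-free wells. Area under the curve came from trapezoidal integration of a log-logistic fit, after scaling curves that rose above full viability and discarding those that failed quality control. The fit had four parameters and used log10 doses.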

P12-Ichikawa [4] = assay: as above
Summary of the method: as §2

COc1ccc([S+](=O)([O-])Nc2cccnc2Nc2ccc(O)cc2)cc1
cell viability [%]
Details | NOMO1 [1] | P12-Ichikawa [2] | SEM cells
HPLM + 10% dialyzed FBS, 0.000781 µM | – | 124 | 124
HPLM + 10% dialyzed FBS, 0.00234 µM | – | 118 | 127
HPLM + 10% dialyzed FBS, 0.00702 µM | – | 124 | 114
HPLM + 10% dialyzed FBS, 0.0211 µM | – | 119 | 116
HPLM + 10% dialyzed FBS, 0.0632 µM | – | 122 | 127
HPLM + 10% dialyzed FBS, 0.19 µM | – | 125 | 115
HPLM + 10% dialyzed FBS, 0.569 µM | – | 129 | 123
HPLM + 10% dialyzed FBS, 1.71 µM | – | 122 | 96.1
HPLM + 10% dialyzed FBS, 5.12 µM | – | 17.2 | 20.9
HPLM + 10% dialyzed FBS, 15.4 µM | – | 14.8 | 25.5
HPLM + 10% dialyzed FBS, 46.1 µM | – | 10.8 | 21.6
RPMI 5 mM glucose + 10% FBS, 0.000781 µM | 117 | 125 | 76.2
RPMI 5 mM glucose + 10% FBS, 0.00234 µM | 107 | 121 | 82.1
RPMI 5 mM glucose + 10% FBS, 0.00702 µM | 116 | 116 | 65.8
RPMI 5 mM glucose + 10% FBS, 0.0211 µM | 115 | 126 | 86.4
RPMI 5 mM glucose + 10% FBS, 0.0632 µM | 121 | 120 | 77.6
RPMI 5 mM glucose + 10% FBS, 0.19 µM | 101 | 119 | 82.6
RPMI 5 mM glucose + 10% FBS, 0.569 µM | 129 | 118 | 77.1
RPMI 5 mM glucose + 10% FBS, 1.71 µM | 97.6 | 122 | 79.1
RPMI 5 mM glucose + 10% FBS, 5.12 µM | 28.6 | 22.3 | 36.2
RPMI 5 mM glucose + 10% FBS, 15.4 µM | 23.2 | 17.7 | 17.5
RPMI 5 mM glucose + 10% FBS, 46.1 µM | 29.4 | 17.3 | 13.5
RPMI 5 mM glucose + 10% dialyzed FBS, 0.000781 µM | 119 | 117 | 114
RPMI 5 mM glucose + 10% dialyzed FBS, 0.00234 µM | 113 | 128 | 109
RPMI 5 mM glucose + 10% dialyzed FBS, 0.00702 µM | 110 | 118 | 109
RPMI 5 mM glucose + 10% dialyzed FBS, 0.0211 µM | 111 | 114 | 105
RPMI 5 mM glucose + 10% dialyzed FBS, 0.0632 µM | 114 | 121 | 102
RPMI 5 mM glucose + 10% dialyzed FBS, 0.19 µM | 110 | 113 | 124
RPMI 5 mM glucose + 10% dialyzed FBS, 0.569 µM | 116 | 108 | 113
RPMI 5 mM glucose + 10% dialyzed FBS, 1.71 µM | 114 | 113 | 96.5
RPMI 5 mM glucose + 10% dialyzed FBS, 5.12 µM | 71.5 | 39 | 47.5
RPMI 5 mM glucose + 10% dialyzed FBS, 15.4 µM | 36 | 28 | 23.4
RPMI 5 mM glucose + 10% dialyzed FBS, 46.1 µM | 33.5 | 24 | 20.2

AUC of viability dose-response curve
Details | HPLM + 10% dialyzed FBS | RPMI 5 mM glucose + 10% FBS | RPMI 5 mM glucose + 10% dialyzed FBS
NOMO1 [3] | 387 | 379 | 410
P12-Ichikawa [4] | 372 | 377 | 388
